Molecules are shown by their SMILES. “Also recorded” adds a separate entry of the source.

This test deals with IL-1β release. Briefly: LPS neuroinflammation model in cerebellar organotypic cultures: IL1-beta ELISA. The class given is cell-based, C57/B16 wild type mice. The note with it: 192 μM MTA pre-treatment, 15 μg/ml LPS, 3 hrs. The text has this: Organotypic cultures model of neuroinflammation is based on previous observations in which systemic injections of lipopolysaccharide (LPS) in mice spinal cord induce inflammation, demyelinization and Wallerian degeneration. In mice cerebellar organotypic cultures, LPS induces microglia activation with consequent demyelination and axonal damage. In particular, LPS induces TNF-alpha, IL1-beta release, axonal swelling and end bulbs due to axonal transport block, and a decrease of axonal density. Organotypic cultures represent the best model to represent in vivo mechanisms since they maintain cell-cell interaction and organotypic structure of brain region studied. In this way, this in vitro neuroinflammation model reproduces the microglia activation, demyelinization and axonal damage phenomena observed in MS.
Cerebellar organotypic cultures which were pre-treated for half hour with 192 μM of MTA and 15 μg/ml of LPS have been used to generate neuroinflammation model.
2. Data analysis: Western blot, immunofluorescence and ELISA analysis were performed using conventional techniques.
In general terms: ELISA stands for enzyme-linked immunosorbent assay.

With `CSC[C@H]1O[C@@H](n2cnc3c(N)ncnc32)[C@H](O)[C@@H]1O` [MTA, 5′-methylthioadenosine], the “IL-1β release (ELISA)” value was “decreases; also recorded: minor quantity”.

(Values after patent US20120083464A1, “NEUROPROTECTIVE PROPERTIES OF 5'-METHYLTHIOADENOSINE” (priority 2009, published 2012).)
